According to US6518050B1, “Process for producing and extracting aromatic compounds” (Revico, priority 1998, dated 2003):

What was measured:
Sporobolomyces odorus [1] = test: Biomass production (OD at 620 nm) of S. odorus cultures on distilling slops with added precursor or additives; type: cell-based; settings: for Biomass (OD at 620 nm): culture period of 77 hours; for OD at 620 nm: measured after 77 hours, 0 ml: 8.74; for OD620: HNCH 5 g/vial, culture period of 150 hours
Experimental: During these culture processes, performed in a liquid medium, temperature was held at 24° C. and stirring was at 250 rpm (revolutions per minute).
Time dependency of the amount of biomass produced during cultivation of this yeast, was tracked by measuring the optical density (OD) of the cell suspension at 620 nm. On the spectrophotometer, 0 was obtained with a sample of pure medium (baseline).
In order to test the effect of adding methyl ricinoleate to cultures of S. odorus on distilling slops exclusively, 1 ml of this precursor was added to cellular suspensions of 60 ml of 24 hours of age. […] Indeed, instead of a final concentration, after 77 hours, of 1.02 mg/l on distilling slops or of 6.47 mg/l when castor oil was added, we obtained concentrations of 28.23 mg/l (FIG. 8). […] So it would become rapidly a limiting factor in obtaining free ricinoleic acid from castor oil. Adding directly usable methyl ricinoleate overcomes this problem and lactone production yields are improved.
In order to optimize the added amount of methyl ricinoleate, we produced cultures to which we added after 24 hours either 0.83%, or 1.66%, or 10% (v/v) of methyl ricinoleate.
Additions of RM were performed at instants t=0, 24, 48 and 72 hours. These cultures were produced in 250 ml erlenmeyers containing 5 g of HNCH and 60 ml of sown distilling slops at an initial yeast cell density of 0.2 units of OD620 (optical density measured at 620 nm).
With the aim of increasing the productivity of the system by implementing an in situ extraction of γ-decalactone, two series of tests were conducted; one at an initial cell density of 0.2 (control), the other at an initial cell density of 4.

Sporobolomyces odorus [2] = test: Toxicity of γ-decalactone: yeast growth kinetics on distilling slop medium containing lactone; type: cell-based
Experimental: Time dependency of the amount of biomass produced during cultivation of this yeast, was tracked by measuring the optical density (OD) of the cell suspension at 620 nm. On the spectrophotometer, 0 was obtained with a sample of pure medium (baseline). In order to determine whether γ-decalactone is toxic for cells, yeast growth kinetics on a distilling slop medium containing either 50 mg/l or 250 mg/l of lactone were obtained (FIG. 11). […] Beyond this point, a shift was observed. […] Indeed, the maximum achieved OD was 4 instead of 15 in the control. This same phenomenon was already observed by Ferron and al. (1996) who determined that the compatible dose with a non-zero cell growth rate is between 100 and 200 mg/l. This would partly explain why lactone concentrations of 250 to 300 mg/l were not exceeded under the retained experimental conditions.

SMILES	Biomass (OD at 620 nm) (Sporobolomyces odorus [1]; 0.06% at t = 0 hrs + 0.83% at t = 24 hrs)	OD at 620 nm (Sporobolomyces odorus [1]; 0.5 ml RM added to 60 ml culture after 24 hours)	Biomass (OD at 620 nm) (Sporobolomyces odorus [1]; 0.83% v/v at t = 24 hrs)	OD at 620 nm (Sporobolomyces odorus [1]; 1 ml RM added to 60 ml culture after 24 hours)	biomass, OD (Sporobolomyces odorus [1]; 1 ml added to 60 ml cultures of 24 hours of age, after 77 hours, 14.0 on distilling slops exclusively)	OD620 (Sporobolomyces odorus [1]; 4×0.03, 0.06 or 0.12% (v/v) of precursor)	OD620 (Sporobolomyces odorus [1]; 4×0.18% (v/v) of precursor)	OD at 620 nm (Sporobolomyces odorus [1]; 6 ml RM added to 60 ml culture after 24 hours)	effect on the yeast's growth (Sporobolomyces odorus [2]; 50 mg/l lactone in distilling slop medium, first 50 hours of culture)	microorganism growth (Sporobolomyces odorus [2]; 250 mg of lactone in distilling slop medium)	maximum achieved OD (Sporobolomyces odorus [2]; 250 mg of lactone, control 15)	toxicity exerted on yeast above (concentration) (Sporobolomyces odorus [2]; statement in section C 1.1)	toxic effect observed beyond (concentration) (Sporobolomyces odorus [2]; summary statement of section 6) [mg/L]
CCCCCC[C@@H](O)C/C=C\CCCCCCCC(=O)OC [methyl ricinoleate]	8.4	8.00	8.0	7.94	11.06	8	15	8.98					
CCCCCCC1CCC(=O)O1 (stereo not shown) [γ-decalactone]									did not affect the yeast's growth	significantly reduced	4	above 150 mg/l	> 250
